In publication PMC4503722, “Novel Phenotypic Outcomes Identified for a Public Collection of Approved Drugs from a Publicly Accessible Panel of Assays” (PLoS ONE, 2015):

Legend:
[1] = test system: endothelial tube formation in co-cultures of ECFCs and ADSCs treated with VEGF; experiment: cells; format: cell-based, human
HeLa cells = experiment: cells; format: cell-based; settings: for Hela CellCycMod PI 2N IC50/EC50: assay number 14; for Hela CellCycMod PI S Phase IC50/EC50: assay number 15; for Hela CellCycMod PI 4N IC50/EC50: assay number 16; for Hela CellCycMod PI MI IC50/EC50: assay number 17; for Hela CellCycMod PI Cell Number IC50/EC50: assay number 18
DLD-1 = experiment: cells; format: cell-based; settings: for Basal_Viability ATP DLD-1 IC50/EC50: assay number 23
SW480 = experiment: cells; format: cell-based; settings: for Basal_Viability ATP SW480 IC50/EC50: assay number 24
HCT116 = experiment: cells; format: cell-based; settings: basal; for Basal_Viability ATP HCT116 IC50/EC50: assay number 25
[2] = test system: HCT116 cells treated with a GSK3β inhibitor; experiment: cells; format: cell-based; settings: GSK3b inh pretreated
Colo320 = experiment: cells; format: cell-based; settings: for Basal_Viability ATP Colo 320 IC50/EC50: assay number 27
HT-29 = experiment: cells; format: cell-based; settings: for Basal_Viability ATP HT-29 IC50/EC50: assay number 28
RKO = experiment: cells; format: cell-based; settings: for Basal_Viability ATP RKO IC50/EC50: assay number 29
SNU-C1 = experiment: cells; format: cell-based; settings: basal
hp70S6K1 (RPS6KB1) = molecular target: T1, hp70S6K1 (RPS6KB1) (Homo sapiens, UniProt P23443); experiment: Cerep LANCE kinase assay hp70S6K1 (S1 assay 31); format: biochemical; settings: for hp70S6K1 LANCE IC50/EC50: assay number 31
T1 construct: purchased Cerep (LANCE kinase assay platform, contract assay)

hKDR = molecular target: T2, hKDR (Homo sapiens, UniProt P35968); experiment: Cerep LANCE kinase assay hKDR (S1 assay 32); format: biochemical; settings: for hKDR LANCE IC50/EC50: assay number 32
T2 construct: purchased Cerep (LANCE kinase assay platform, contract assay)

hJAK2 = molecular target: T3, hJAK2 (Homo sapiens, UniProt O60674); experiment: Cerep LANCE kinase assay hJAK2 (S1 assay 33); format: biochemical; settings: for hJAK2 LANCE IC50/EC50: assay number 33
T3 construct: purchased Cerep (LANCE kinase assay platform, contract assay)

hGSK3b = molecular target: T4, hGSK3b (Homo sapiens, UniProt P49841); experiment: Cerep LANCE kinase assay hGSK3b (S1 assay 34); format: biochemical; settings: for hGSK3b LANCE IC50/EC50: assay number 34
T4 construct: purchased Cerep (LANCE kinase assay platform, contract assay)

hFLT3 = molecular target: T5, hFLT3 (Homo sapiens, UniProt P36888); experiment: Cerep LANCE kinase assay hFLT3 (S1 assay 35); format: biochemical; settings: for hFLT3 LANCE IC50/EC50: assay number 35
T5 construct: purchased Cerep (LANCE kinase assay platform, contract assay)

[3] = test system: ECFC/ADSC co-culture cell nuclei number

T1 sequence (P23443 whole entry): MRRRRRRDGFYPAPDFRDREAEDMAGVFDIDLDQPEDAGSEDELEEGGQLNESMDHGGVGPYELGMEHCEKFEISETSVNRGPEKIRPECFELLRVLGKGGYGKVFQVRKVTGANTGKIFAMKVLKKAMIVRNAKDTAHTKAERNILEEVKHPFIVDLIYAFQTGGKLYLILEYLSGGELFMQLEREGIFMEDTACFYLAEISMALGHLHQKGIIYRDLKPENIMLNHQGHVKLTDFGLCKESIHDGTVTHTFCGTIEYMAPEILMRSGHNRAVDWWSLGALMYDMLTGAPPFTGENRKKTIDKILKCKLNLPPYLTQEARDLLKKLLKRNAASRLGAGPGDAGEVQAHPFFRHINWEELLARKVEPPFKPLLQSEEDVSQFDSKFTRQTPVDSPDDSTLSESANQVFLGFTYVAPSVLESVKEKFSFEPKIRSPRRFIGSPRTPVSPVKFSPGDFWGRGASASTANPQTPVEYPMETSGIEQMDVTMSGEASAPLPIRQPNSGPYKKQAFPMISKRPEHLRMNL
T4 sequence (P49841 whole entry): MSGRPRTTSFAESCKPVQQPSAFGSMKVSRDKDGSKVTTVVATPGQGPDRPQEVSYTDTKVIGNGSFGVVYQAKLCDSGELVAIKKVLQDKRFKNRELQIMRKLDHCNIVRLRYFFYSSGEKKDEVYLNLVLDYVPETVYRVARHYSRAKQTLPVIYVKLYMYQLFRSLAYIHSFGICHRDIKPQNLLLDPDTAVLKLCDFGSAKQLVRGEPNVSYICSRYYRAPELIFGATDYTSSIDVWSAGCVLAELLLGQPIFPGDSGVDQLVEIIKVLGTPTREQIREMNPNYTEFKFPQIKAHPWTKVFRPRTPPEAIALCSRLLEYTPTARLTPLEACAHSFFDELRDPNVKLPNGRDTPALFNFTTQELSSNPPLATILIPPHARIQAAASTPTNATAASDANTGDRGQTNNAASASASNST
T5 sequence (P36888 27-993): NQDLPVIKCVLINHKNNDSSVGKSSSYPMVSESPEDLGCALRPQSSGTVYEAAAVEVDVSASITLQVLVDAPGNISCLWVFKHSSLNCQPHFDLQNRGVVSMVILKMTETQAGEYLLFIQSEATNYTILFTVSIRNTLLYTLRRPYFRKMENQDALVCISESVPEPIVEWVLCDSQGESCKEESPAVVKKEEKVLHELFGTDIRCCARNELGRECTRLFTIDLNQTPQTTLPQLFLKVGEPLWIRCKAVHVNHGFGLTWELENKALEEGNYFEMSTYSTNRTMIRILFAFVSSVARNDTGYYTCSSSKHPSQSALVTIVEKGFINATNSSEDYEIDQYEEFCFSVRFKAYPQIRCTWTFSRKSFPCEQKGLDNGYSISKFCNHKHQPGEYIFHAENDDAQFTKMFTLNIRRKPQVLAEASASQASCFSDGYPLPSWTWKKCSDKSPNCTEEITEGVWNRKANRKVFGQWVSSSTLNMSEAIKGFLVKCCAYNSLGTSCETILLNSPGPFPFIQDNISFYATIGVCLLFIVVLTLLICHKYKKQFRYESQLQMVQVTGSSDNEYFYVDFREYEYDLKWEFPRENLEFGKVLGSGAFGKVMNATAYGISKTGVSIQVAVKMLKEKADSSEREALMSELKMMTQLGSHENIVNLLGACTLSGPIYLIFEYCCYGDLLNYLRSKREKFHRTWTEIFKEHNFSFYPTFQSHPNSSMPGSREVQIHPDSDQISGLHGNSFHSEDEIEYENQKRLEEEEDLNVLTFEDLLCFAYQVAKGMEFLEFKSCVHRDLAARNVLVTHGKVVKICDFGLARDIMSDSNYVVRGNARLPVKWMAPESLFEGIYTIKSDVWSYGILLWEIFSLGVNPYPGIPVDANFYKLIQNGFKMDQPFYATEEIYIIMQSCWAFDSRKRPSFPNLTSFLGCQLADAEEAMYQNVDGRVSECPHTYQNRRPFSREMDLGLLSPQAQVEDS
T2 sequence (P35968 20-1356): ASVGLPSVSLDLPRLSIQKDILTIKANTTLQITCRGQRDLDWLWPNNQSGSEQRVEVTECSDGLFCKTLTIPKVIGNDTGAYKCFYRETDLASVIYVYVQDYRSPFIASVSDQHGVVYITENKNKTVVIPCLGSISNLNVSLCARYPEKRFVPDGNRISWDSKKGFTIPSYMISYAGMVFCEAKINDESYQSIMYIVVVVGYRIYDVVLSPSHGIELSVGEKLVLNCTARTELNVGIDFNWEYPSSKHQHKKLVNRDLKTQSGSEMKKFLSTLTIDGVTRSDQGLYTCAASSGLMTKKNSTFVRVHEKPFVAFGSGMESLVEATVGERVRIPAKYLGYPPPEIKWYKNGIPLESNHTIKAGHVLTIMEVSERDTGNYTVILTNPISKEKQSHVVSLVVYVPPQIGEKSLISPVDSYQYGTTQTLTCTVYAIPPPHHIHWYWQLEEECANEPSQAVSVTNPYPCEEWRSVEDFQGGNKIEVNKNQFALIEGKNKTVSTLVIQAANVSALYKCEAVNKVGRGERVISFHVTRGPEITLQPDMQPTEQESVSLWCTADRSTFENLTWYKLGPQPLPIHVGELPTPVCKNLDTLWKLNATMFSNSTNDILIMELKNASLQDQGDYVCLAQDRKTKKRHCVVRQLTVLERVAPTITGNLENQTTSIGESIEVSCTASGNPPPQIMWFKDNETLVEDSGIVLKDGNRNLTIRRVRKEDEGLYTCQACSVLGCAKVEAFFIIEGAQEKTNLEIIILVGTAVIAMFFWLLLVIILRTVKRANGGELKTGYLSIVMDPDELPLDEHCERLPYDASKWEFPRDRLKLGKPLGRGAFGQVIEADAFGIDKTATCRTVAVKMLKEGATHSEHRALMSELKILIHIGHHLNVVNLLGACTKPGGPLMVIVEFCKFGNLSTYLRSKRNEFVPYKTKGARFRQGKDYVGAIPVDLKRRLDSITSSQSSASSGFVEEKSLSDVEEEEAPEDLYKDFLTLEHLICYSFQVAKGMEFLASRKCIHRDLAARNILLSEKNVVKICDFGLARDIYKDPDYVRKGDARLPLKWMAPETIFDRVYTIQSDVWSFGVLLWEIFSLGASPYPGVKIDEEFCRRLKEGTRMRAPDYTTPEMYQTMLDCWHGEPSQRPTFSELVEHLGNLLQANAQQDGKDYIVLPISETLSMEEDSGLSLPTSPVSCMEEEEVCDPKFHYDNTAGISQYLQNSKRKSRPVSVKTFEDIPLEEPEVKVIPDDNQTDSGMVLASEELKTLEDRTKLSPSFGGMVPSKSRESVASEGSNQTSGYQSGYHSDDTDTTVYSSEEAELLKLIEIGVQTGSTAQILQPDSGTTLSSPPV
T3 sequence (O60674 whole entry): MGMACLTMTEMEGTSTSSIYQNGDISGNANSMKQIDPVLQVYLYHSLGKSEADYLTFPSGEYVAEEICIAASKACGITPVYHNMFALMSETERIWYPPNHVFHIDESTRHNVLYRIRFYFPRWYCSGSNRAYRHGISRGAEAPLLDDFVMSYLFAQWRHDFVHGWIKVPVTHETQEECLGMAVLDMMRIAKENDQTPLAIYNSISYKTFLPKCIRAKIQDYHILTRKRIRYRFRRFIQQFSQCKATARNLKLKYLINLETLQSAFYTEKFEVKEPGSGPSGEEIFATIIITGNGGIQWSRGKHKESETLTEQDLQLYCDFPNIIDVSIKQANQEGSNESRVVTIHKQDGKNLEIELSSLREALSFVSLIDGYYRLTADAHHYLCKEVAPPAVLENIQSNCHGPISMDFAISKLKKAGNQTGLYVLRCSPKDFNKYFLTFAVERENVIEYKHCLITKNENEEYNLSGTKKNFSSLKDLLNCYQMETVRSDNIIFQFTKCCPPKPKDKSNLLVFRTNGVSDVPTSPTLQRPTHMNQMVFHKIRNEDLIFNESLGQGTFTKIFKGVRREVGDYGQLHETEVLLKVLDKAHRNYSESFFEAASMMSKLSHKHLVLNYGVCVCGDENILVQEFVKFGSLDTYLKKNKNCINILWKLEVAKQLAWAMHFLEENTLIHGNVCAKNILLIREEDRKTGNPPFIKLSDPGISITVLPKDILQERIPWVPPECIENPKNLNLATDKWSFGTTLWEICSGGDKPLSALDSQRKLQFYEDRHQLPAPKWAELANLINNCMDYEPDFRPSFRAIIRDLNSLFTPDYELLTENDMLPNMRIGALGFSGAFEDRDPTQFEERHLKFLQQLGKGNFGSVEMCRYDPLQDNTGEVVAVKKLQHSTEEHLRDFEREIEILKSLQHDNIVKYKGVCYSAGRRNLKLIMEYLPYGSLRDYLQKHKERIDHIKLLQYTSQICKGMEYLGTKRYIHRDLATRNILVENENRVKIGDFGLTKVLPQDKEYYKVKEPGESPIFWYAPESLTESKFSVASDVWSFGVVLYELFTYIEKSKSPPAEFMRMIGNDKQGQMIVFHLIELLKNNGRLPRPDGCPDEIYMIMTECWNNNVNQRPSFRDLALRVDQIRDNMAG

Structure (SMILES)	VEGF_ADSC\ECFC Angio CD31 TubeArea IC50/EC50 [1] [µM]	Hela CellCycMod PI 2N IC50/EC50 (HeLa cells; 2N) [µM]	Hela CellCycMod PI S Phase IC50/EC50 (HeLa cells) [µM]	Hela CellCycMod PI 4N IC50/EC50 (HeLa cells; 4N) [µM]	Hela CellCycMod PI MI IC50/EC50 (HeLa cells; MI) [µM]	Hela CellCycMod PI Cell Number IC50/EC50 (HeLa cells) [µM]	Basal_Viability ATP HCT116 IC50/EC50 (HCT116) [µM]	hp70S6K1 LANCE IC50/EC50 (hp70S6K1 (RPS6KB1)) [µM]	hKDR LANCE IC50/EC50 (hKDR) [µM]	hJAK2 LANCE IC50/EC50 (hJAK2) [µM]	hGSK3b LANCE IC50/EC50 (hGSK3b) [µM]	hFLT3 LANCE IC50/EC50 (hFLT3) [µM]	VEGF_ADSC\ECFC Angio Hoechst NucArea IC50/EC50 [3] [µM]	further results
O=c1[nH]c(=O)n([C@H]2C[C@H](O)[C@@H](CO)O2)cc1F [NCGC00023722-08]	–	–	–	–	–	–	–	–	–	–	–	–	–	IC50/EC50, VEGF_ADSC\ECFC Angio CD31 TubeArea (assay number 2) [1]: 0.0216 µM; IC50/EC50, Hela CellCycMod PI 2N (assay number 14) (HeLa cells; 2N): > 10 µM; IC50/EC50, Hela CellCycMod PI 4N (assay number 16) (HeLa cells; 4N): > 10 µM; IC50/EC50, Hela CellCycMod PI Cell Number (assay number 18) (HeLa cells; Cell Number): > 10 µM; IC50/EC50, Hela CellCycMod PI MI (assay number 17) (HeLa cells; MI): > 10 µM; IC50/EC50, Hela CellCycMod PI S Phase (assay number 15) (HeLa cells; S Phase): 0.1688 µM; IC50/EC50, Basal_Viability ATP DLD-1 (assay number 23) (DLD-1; basal): 0.001 µM; IC50/EC50, Basal_Viability ATP SW480 (assay number 24) (SW480; basal): > 20 µM; IC50/EC50, Basal_Viability ATP HCT116 (assay number 25) (HCT116): 0.001 µM; IC50/EC50, GSK3b inh pretreated_Viability ATP HCT116 (assay number 26) [2]: 0.001 µM; IC50/EC50, Basal_Viability ATP Colo 320 (assay number 27) (Colo320; basal): > 20 µM; IC50/EC50, Basal_Viability ATP HT-29 (assay number 28) (HT-29; basal): > 20 µM; IC50/EC50, Basal_Viability ATP RKO (assay number 29) (RKO; basal): 0.001 µM; IC50/EC50, Basal_Viability ATP SNU-C1 (assay number 30) (SNU-C1): > 20 µM; IC50/EC50, hp70S6K1 LANCE (assay number 31) (hp70S6K1 (RPS6KB1)): > 20 µM; IC50/EC50, hKDR LANCE (assay number 32) (hKDR): > 20 µM; IC50/EC50, hJAK2 LANCE (assay number 33) (hJAK2): > 20 µM; IC50/EC50, hGSK3b LANCE (assay number 34) (hGSK3b): > 20 µM; IC50/EC50, hFLT3 LANCE (assay number 35) (hFLT3): > 20 µM; IC50/EC50, VEGF_ADSC\ECFC Angio Hoechst NucArea (assay number 3) [3]: > 10 µM
CC(C)(C)C1CCC(CC2=C(O)c3ccccc3C(=O)C2=O)CC1 (centres unmarked) [NCGC00253624-01]	1.9625	> 10	> 10	> 10	> 10	> 10	0.2268	> 20	> 20	> 20	> 20	> 20	> 10	Basal_Viability ATP DLD-1 IC50/EC50 (DLD-1): 0.2185 µM; Basal_Viability ATP SW480 IC50/EC50 (SW480): 0.2047 µM; Basal_Viability ATP Colo 320 IC50/EC50 (Colo320): 0.2548 µM; Basal_Viability ATP HT-29 IC50/EC50 (HT-29): 3.3906 µM; Basal_Viability ATP RKO IC50/EC50 (RKO): 0.1329 µM
COc1cc(-c2ccc(=O)[nH]n2)ccc1OC(F)F [NCGC00016106-13]	1.2205	> 10	> 10	> 10	> 10	0.0092	–	> 20	> 20	> 20	> 20	> 20	> 10	–
COc1ccc(-c2ccc3cc(C(=O)O)ccc3c2)cc1C12CC3CC(CC(C3)C1)C2 [NCGC00164617-04]	0.5236	> 10	> 10	> 10	> 10	5.4943	0.5897	> 20	7.1	5.57	7.25	> 20	> 10	Basal_Viability ATP DLD-1 IC50/EC50 (DLD-1; basal): 0.5971 µM; Basal_Viability ATP SW480 IC50/EC50 (SW480; basal): 0.4051 µM; Basal_Viability ATP Colo 320 IC50/EC50 (Colo320; basal): 0.7871 µM; Basal_Viability ATP HT-29 IC50/EC50 (HT-29; basal): 1.1248 µM; Basal_Viability ATP RKO IC50/EC50 (RKO; basal): 0.4435 µM; Basal_Viability ATP SNU-C1 IC50/EC50 (SNU-C1; assay number 30): 1.7798 µM
CCC(C)n1ncn(-c2ccc(N3CCN(c4ccc(OC[C@H]5CO[C@](Cn6cncn6)(c6ccc(Cl)cc6Cl)O5)cc4)CC3)cc2)c1=O (some centres unmarked) [NCGC00274068-01]	1.5488	> 10	–	> 10	> 10	> 10	–	> 20	> 20	> 20	> 20	> 20	> 10	–
